# From patent US8404825B2, “Method for producing monoterpene and monoterpinoid compounds and use thereof” (Board of Regents of the Nevada System of Higher Education, …, priority 2008, dated 2013)
# Tests used:
# [1] = system: I. calligraphus; conditions: southeast U.S.; cited from earlier work
# [2] = system: recombinant Ipi12D04; assay: Functional assay of recombinant Ipi12D04 (pyridine nucleotide assay at 340 nm, GC-MS of products); format: biochemical, Ips pini; conditions: for reaction product of reduction by Ipi12D04 enzyme (stereoisomer by chiral GC): in the presence of NADPH, chiral column, compared with racemic standard
# Protocol: Enzyme activity is determined by a pyridine nucleotide (PN) binding assay that monitors production or consumption of NADH/NADPH by measuring the absorbance of the catalysts reaction at 340 nm using a spectrophotometer. The reactions include reaction buffer (0.1 M NaP pH 7.8 and 1.1 mM EDTA), enzyme, PN, and substrate (monoterpene) in a 1 ml total volume and the absorbance was measured over time at room temperature. The volatiles produced from the reactions were extracted three times with pentane:ether (1:1) spiked with 200 n g/ml n-octanol (internal standard) and concentrated to approximately 100 ul with nitrogen gas. The samples were directly analyzed by coupled GC-MS at the Nevada Proteomics Center at UNR.
# Enzyme activity was determined by a pyridine nucleotide (PN) binding assay that monitored production or consumption of NADH/NADPH spectrophotometrically. The reaction mixture included reaction buffer (0.1 M NaP pH 7.8 and 1.1 mM EDTA), enzyme, PN, and substrate (monoterpene) in a 1 ml total volume. The absorbance was measured over time at room temperature. The reactions were extracted three times with pentane:ether (1:1) spiked with 200 ng/ml n-octanol (internal standard) to extract monoterpenoids and concentrated to approximately 100 ul with nitrogen gas. The samples were directly analyzed by coupled GC-MS at the Nevada Proteomics Center at UNR.
# Biochemical reactions catalyzed by recombinant Ipi12D04, as determined by functional assays, are summarized below. In general, the enzyme functions as an oxidoreductase, using NAD(P) or NAD(P)H as cofactors, depending on whether it is oxidizing or reducing a substrate. […] Negative controls for all reactions included media from un-infected cells.
# [3] = system: Ips. typographus; conditions: cited from earlier work
# [4] = system: western populations of Ips pini; conditions: cited from earlier work
structure (smiles),measurement,setting,value
"C=CC(=C)CC(O)C=C(C)C (single isomer, unassigned; (-)) [(−)-ipsdienol, 2-methyl-6-methylene-2,7-octadien-4-ol]",behavioural response (attraction / dispersal),[1],attracted
C=CC(=C)C[C@@H](O)CC(C)C [(+)-ipsenol],expected conversion by Ipi12D04 enzyme,[2]; enzyme incubated with both NAD(P) and NAD(P)H,readily converted to (−)-ipsenol
"C=CC(=C)CC(O)C=C(C)C (single isomer, unassigned; (+)) [(+)-ipsdienol]",behavioural response (attraction / dispersal),[1],dispersed
C=CC(=C)C[C@@H](O)CC(C)C [ipsenol],behavioural response,[3],anti-aggregation pheromone
C=CC(=C)CC(=O)C=C(C)C [ipsdienone],reaction product of reduction by Ipi12D04 enzyme (stereoisomer by chiral GC),[2],reaction product was pure (−)-ipsdienol
C=CC(=C)CC(=O)CC(C)C [ipsenone],reaction product of reduction by Ipi12D04 enzyme (stereoisomer by chiral GC),[2],reaction product was pure (−)-ipsdienol
"C=CC(=C)CC(O)C=C(C)C (racemic) [racemic ipsdienol, ipsdienol]",reaction product of oxidation by Ipi12D04 enzyme,"[2]; with NADP, GC and mass spectrum compared with ipsdienone standard",converts racemic ipsdienol to ipsdienone
same,attractiveness as aggregation pheromone,[4],not attractive at all
